Tests used:
[1] = system: Salmonella minnesota ReLPS sensitized sheep erythrocytes; assay: LPS hemagglutination assay (MAC); type: binding
Procedure: For hemagglutination assays, erythrocytes were sensitized with LPS as follows. One ml of 1% erythrocyte suspension (human 0 type, C3H/HeN mouse or sheep) was mixed with 0.2 ml of LPS solution and incubated at 37° C. for 30 min, followed by washing with phosphate buffered saline (PBS), and then the concentration of suspension was adjusted to 1.0%. In the case of S-LPS, the solution was heated at 100° C. for 1 hour before sensitization of erythrocytes. […] Activity of CAP was expressed as a minimum agglutinating concentration (MAC) of CAP. According to the method of Kirikae et al. (1986) Microbiol. Immunol. 30:269-274, 50 μl of 2-fold serial dilution of Re-LPS was added to 50 μl of 1.0% rabbit erythrocyte suspension, and incubated at 37° C. for 3 hour. Minimum agglutinating concentration of Re-LPS was expressed as 1 HA unit.

Human plasma = assay: Prothrombin time (PT); type: biochemical
Procedure: Prothrombin time (PT). Human plasma (100 μl) was incubated with 100 μl of each peptide at 37° C. for 3 min., then 100 μl of tissue factor (250 μg/ml) CaCl2 was added and clotting time was measured.

Salmonella typhimurium = assay: Antibacterial CFU assay; conditions: for anti-bacterial activity (CFU), in words: Salmonella typhimurium, smooth strain; for effect on CFU of S. typhimurium: high concentrations alone and in various combinations
prothrombin (factor II) [2] = target: prothrombin (factor II) (Homo sapiens, UniProt P00734); assay: Prothrombin activation by Echis Carinatus venom (ECV); type: biochemical
Procedure: Prothrombin activation by Echis Carinatus venom (ECV). A reaction mixture of prothrombin (factor II) (0.1 unit/ml, 200 μl), ECV (1 unit/ml, 200 μl), various concentration of peptide (70 μl), 50 μl of 25 mM-CaCl2 and 180 μl of Tris buffer was incubated at 37° C. for 10 min. To 300 μl of the reaction mixture, 60 μl of 4 mM-thrombin substrate and 240 μl of buffer was added and further incubated for 15 min.

Salmonella minnesota Re = assay: Antibacterial CFU assay
[3] = system: thioglycollate-stimulated murine peritoneal macrophages; assay: LPS-induced tissue factor generation by macrophages (clotting assay); type: cell-based; conditions: peptides 1 μg/ml incubated with S. minnesota smooth LPS 5 minutes; 6 hr
Procedure: Tissue factor assay. Salmonella minnesota smooth LPS was incubated with each peptide (1 μg/ml) for 5 min., then the mixture was added to peritoneal murine macrophages obtained 4 days after thioglycollate stimulation. Cells were cultured for 6 hours prior to assay of tissue factor by clotting assay.
Various concentrations of Salmonella minnesota smooth LPS were incubated with each peptide (197 (RNIP), 36-1, 32-1, and 50-2) at 37° C. for 5 minutes prior to mixing with thioglycollate-stimulated murine peritoneal macrophages. Production of tissue factor after 6 hr. was measured by clotting assay. […] In the absence of LPS no tissue factor is synthesized by these cells.

RAW 264.7 cells = assay: LPS- or IFNγ-induced reactive nitrogen intermediate (RNI) production, Griess nitrite assay; type: cell-based, murine; conditions: macrophages / RAW 264.7 cells
Procedure: From the sequence of the CAP18 cDNA, it was apparent that the putative N-terminal peptide of CAP18 was in fact an internal fragment of the CAP18 protein. We therefore tried to reconfirm the original protein sequence. Neutrophil-derived heparin bound cationic proteins were prepared as described above and applied to a C18 reverse phase HPLC (FIG. 1). We sequenced the major peaks. Peaks at fractions 14.5 and 15.2 correspond to defensins MCP1 and MCP2 (Territo et al. (1989) J. Clin. Invest. 84:2017-2019), respectively. Fraction 25.8 is macrophage related protein 14 (MRP14) (Odink et al. (1987) Nature 330:80-82). The fraction at 20.3 minutes corresponds to a fragment of CAP18 of approximately 4-5 kD. […] The murine macrophage cell line RAW 264.7 (obtained from ATCC) and thioglycollate-elicited murine peritoneal exudate cells are used to produce RNI. Cells are cultured at 1×10^6 /ml. in RPMI-1640 +2.5% FCS in 24 well plates in the presence or absence of different concentrations of LPS or murine rlFNγ. After 24 hr. incubation at 37° C., the cell free supernatant is collected and tested for the presence of RNI. Accumulation of nitrite in the medium is measured by a calorimetric assay based on the Griess reaction (Green et al. (1982) Anal. Biochem. 126:11) using sodium nitrite as standards. Sample (50 μl) is mixed with 50 μl of Griess reagent (1% sulfanilamide, 0.1% naphthalene diamine dihydrochloride, 2.5% H3 PO4) and after 10 min. at room temperature absorbance is read at 570 nm.

prothrombin (factor II) [4] = target: prothrombin (factor II)
tissue factor generation = assay: Effect of CAP-37 on LPS-induced tissue factor generation; type: cell-based; conditions: for Tissue factor units / Tissue factor units, value in parentheses (ratio to control): CAP-37 15 HA
Procedure: Table 6 presents a comparison of the effect of RNIP, CAP18, and defensins HP-1 and HP-2 (Territo et al. (1989) J. Clin. Invest. 84:2017-2019) on LPS-induced tissue factor generation. Tissue factor assays were performed as follows. Mouse peritoneal cells were elicted with an intraperitoneal injection of thioglycolate medium and harvested 5-days later by irrigation with pyrogen-free saline. The cells were washed with RPMI 1640 medium, counted and resuspended at a concentration of 1.5-2.0×10^6 /ml in serum-free RPMI medium containing glutamine (0.29 mg/ml), penicillin (50 units/ml) and streptomycin ([…]). Adherent cells were prepared by incubating 10 ml of a cell suspension (in RPMI 1640 media in sterile culture bottle (Nunclon, 50 ml, Inter Med) for 60 min. at 37° C. in a 5% CO2 atmosphere. The plastic adherent cells were recovered by scraping of the bottle with a sterile rubber policeman. The adherent cells were then washed twice with RPMI media, resuspended in serum-free medium (1×10^6 /ml) in culture tube (Nunc cryotube, Inter Med), and stimulated with graded doses of LPS for 6 hr. at 37° C. in a 5% CO2. The cell suspension was centrifuged and cell pellet was frozen at -80° C. until clotting assays were run.
Veronal buffered saline (VBS) was added to the cell pellet, lysed by 3 cycles of freeze/thaw and sonicated for 10 sec with a hand-held sonicator microbe (Handy Sonic, model UR-20P, Tomy Seiko LTD, Tokyo). Tissue factor activity was tested in modified unactivated partial thromboplastin time (7). One tenth ml of cell lysate (1×10^6 /ml) was preincubated with mouse plasma at 37° C. for 3 min. Then 0.1 ml of 25 mM-CaCl2 which contains phospholipid was added to the mixture and clotting time was measured using a fibrometer (Bio Quest Division, Becton Dickinson, Cokeysville, USA). A standard curve obtained from serial two-fold dilutions of rabbit brain thromboplastic (Simplastin, Ono Pharmaceutical Co.) was used to transpose tissue factor activity into arbitrary tissue factor units (1 μg/ml) suspension of rabbit brain was assigned a value of 1,000 units).
.dagger.LPS was incubated with CAP37 at 37° C. for 2 hours, and th
mixture was added to cells, then cultured for 6 hours.

52-2: synthetic rabbit RNIP fragment, amino acids 143-170 of SEQ ID NO:4 (FRNKIKEKLKKIGQKIQGLLPKLAPRTD) [Peptide 52-2]
Hemagglutination [MAC], minimum agglutinating concentration [1]: > 125 µg/mL

54-1: synthetic rabbit RNIP fragment, amino acids 139-170 of SEQ ID NO:4 (RLRKFRNKIKEKLKKIGQKIQGLLPKLAPRTD) [Peptide 54-1]
Hemagglutination [MAC], minimum agglutinating concentration [1]: > 125 µg/mL

50-2: synthetic rabbit RNIP fragment, amino acids 147-171 of SEQ ID NO:4 (IKEKLKKIGQKIQGLLPKLAPRTDY) [Peptide 50-2]
Hemagglutination [MAC], minimum agglutinating concentration [1]: > 125 µg/mL
inhibition of the prothrombin time (PT), in words (Human plasma): inactive
anti-bacterial activity (CFU), in words (Salmonella typhimurium): not active
effect on CFU of S. typhimurium (Salmonella typhimurium): No effect
inhibition of Echis carinatus venom activation of purified factor II to IIa (in words) (prothrombin (factor II) [2]): inactive
anti-bacterial activity (CFU), in words (Salmonella minnesota Re): not active
inhibition of LPS induced tissue factor (in words) [3]: fail to inhibit

54-2: synthetic rabbit RNIP fragment, amino acids 139-171 of SEQ ID NO:4 (RLRKFRNKIKEKLKKIGQKIQGLLPKLAPRTDY) [Peptide 54-2]
Hemagglutination [MAC], minimum agglutinating concentration [1]: > 125 µg/mL

32-1: synthetic rabbit RNIP fragment, amino acids 135-143 of SEQ ID NO:4 (GLRKRLRKF) [Peptide 32-1]
Hemagglutination [MAC], minimum agglutinating concentration [1]: > 125 µg/mL
inhibition of the prothrombin time (PT), in words (Human plasma): inactive
effect of pretreatment on bacterial killing by peptide 197 (Salmonella typhimurium; S. typhimurium pretreated with peptide 32-1, then peptide 197): no inhibition or augmentation
anti-bacterial activity (CFU), in words (Salmonella typhimurium): not active
effect on CFU of S. typhimurium (Salmonella typhimurium): No effect
inhibition of Echis carinatus venom activation of purified factor II to IIa (in words) (prothrombin (factor II) [2]): inactive
anti-bacterial activity (CFU), in words (Salmonella minnesota Re): not active
inhibition of LPS induced tissue factor (in words) [3]: fail to inhibit

52-3: synthetic rabbit RNIP fragment, printed as amino acids 132-171 of SEQ ID NO:4 (EPTGLRKRLRKFRNKIKEKLKKIGQKIQGLLPKLAPRTDY) [Peptide 52-3]
Hemagglutination [MAC], minimum agglutinating concentration [1]: > 125 µg/mL

52-1: synthetic rabbit RNIP fragment, amino acids 143-169 of SEQ ID NO:4 (FRNKIKEKLKKIGQKIQGLLPKLAPRT) [Peptide 52-1]
Hemagglutination [MAC], minimum agglutinating concentration [1]: > 125 µg/mL

21-1: synthetic rabbit RNIP fragment, amino acids 135-151 of SEQ ID NO:4 (GLRKRLRKFRNKIKEKL) [Peptide 21-1]
Hemagglutination [MAC], minimum agglutinating concentration [1]: > 125 µg/mL

polymyxin B [reference compound]
inhibition of LPS-induced RNI production (in words) (RAW 264.7 cells): inhibition

34-1: synthetic rabbit RNIP fragment, amino acids 140-166 of SEQ ID NO:4 (LRKFRNKIKEKLKKIGQKIQGLLPKLA) [Peptide 34-1]
Hemagglutination [MAC], minimum agglutinating concentration [1]: > 125 µg/mL

187: synthetic rabbit RNIP fragment, amino acids 151-171 of SEQ ID NO:4 (LKKIGQKIQGLLPKLAPRTDY) [Peptide 187]
Hemagglutination [MAC], minimum agglutinating concentration [1]: > 125 µg/mL
inhibition of LPS-induced RNI production (in words) (RAW 264.7 cells): inactive

50-1: synthetic rabbit RNIP fragment, amino acids 147-171 of SEQ ID NO:4 (IKEKLKKIGQKIQGLLPKLAPRTDY) [Peptide 50-1]
Hemagglutination [MAC], minimum agglutinating concentration [1]: > 125 µg/mL

B1: synthetic rabbit RNIP peptide 197 (peptide)
peptide: GLRKRLRKFRNKIKEKLKKIGQKIQGLLPKLAPRTDY
IC50, factor II activation by Xa (prothrombin (factor II) [4]): 50 nM

B2: synthetic rabbit RNIP peptide 36-1 (peptide)
peptide: GLRKRLRKFRNKIKEKLKKIGQKIQGLLPKLA
IC50, factor II activation by Xa (prothrombin (factor II) [4]): < 30 nM

B3: CAP-37: another cationic peptide, azurocidin (CAP37) (Morgan et al.) (protein, UniProt P20160 27-248, looked up)
Azurocidin: IVGGRKARPRQFPFLASIQNQGRHFCGGALIHARFVMTAASCFQSQNPGVSTVVLGAYDLRRRERQSRQTFSISSMSENGYDPQQNLNDLMLLQLDREANLTSSVTILPLPLQNATVEAGTRCQVAGWGSQRSGGRLSRFPRFVNVTVTPEDQCRPNNVCTGVLTRRGGICNGDGGTPLVCEGLAHGVASFSLGPCGRGPDFFTRVALFRDWIDGVLNNPGP
inhibition of tissue factor generation (in words) (tissue factor generation): unable to inhibit tissue factor generation
Tissue factor units (tissue factor generation; LPS 0.1 μg/ml): 383 ± 307 units /1 × 10^5 cells
Tissue factor units, value in parentheses (ratio to control) (tissue factor generation; LPS 0.1 μg/ml): 2.3
Tissue factor units (tissue factor generation; LPS 1.0 μg/ml): 648 ± 343 units /1 × 10^5 cells
Tissue factor units, value in parentheses (ratio to control) (tissue factor generation; LPS 1.0 μg/ml): 3.9
Tissue factor units (tissue factor generation; no LPS): 183 ± 67 units /1 × 10^5 cells
Tissue factor units, value in parentheses (ratio to control) (tissue factor generation; no LPS): 1.1

Reference: patent US6103888A, “Mammalian cationic proteins having lipopolysaccharide binding and anti-coagulant activity” (priority 1999, dated 2000)
